In data set [1] the target is T1, ZIKV EDIII protein (E residues 298-409) (Zika virus, UniProt Q32ZE1, D679E/I627V/V603I/V629A).
T1 construct: human Fc (C)
The format is binding. The note with it: ELISA. On the procedure: (§1) Binding of compounds (NPs) to ZIKV full-length E (FIG. 3A), EDIII (FIG. 3B), and NS2B-NS3 (FIG. 3C) proteins, was detected by ELISA. The percent binding was reported in the presence or absence of serially diluted NPs using the formula (1-[E/EDIII-NP]/[E/EDIII])×100 (for E/EDIII binding) or (1-[NS2B-NS3-NP]/[NS2B-NS3])×100 (for NSEB-NS3 binding). […] The concentrations of ZIKV EDIII and mAbs were 1.5 and 0.5 μg/ml, respectively. […] The concentrations of substrate (Bz-Nle-Lys-Lys-Arg-AMC) and ZIKV NS2B-NS3 protein were 4 μM and 1 μg/ml, respectively. The percent inhibition of protease activity was calculated in the presence or absence of serially diluted compounds using the formula (1-[NS2B-NS3-substrate-NP]/[NS2B-NS3-substrate])×100. The IC50 values were calculated based on the percent inhibition. The data are expressed as mean±s.e.m. (n=4).
(§2) The data are expressed as mean±s.e.m. (n=4), and DMSO was used as negative control. Surface plasmon resonance (SPR) analysis of the binding between ST087010 and ZIKV EDIII (FIG. 6D) or NS2B-NS3 (FIG. 6E) protein was performed. Binding affinity was shown as KD (equilibrium dissociation constant).
(§3) The binding between the Z-medicament and ZIKV full-length E protein, EDIII protein (E residues 298-409 fused with a C-terminal human Fc), or NS2B-NS3 protease was carried out by ELISA. Briefly, ELISA plates were pre-coated with the proteins described above at 4° C. overnight, and blocked with 2% fat-free milk at 37° C. for 2 h. Serial dilutions of the Z-medicament or DMSO (control) were then added to the plates and incubated at 37° C. for 2 h. The plates were washed with PBS containing Tween-20 (PBST), and incubated at 37° C. for 1 h with ZIKV EDIII-specific human mAb ZKA64-LALA (0.5 μg/ml) (for binding to ZIKV full-length E and EDIII proteins), or mouse sera specific to ZIKV NS2B-NS3 (for binding to NS2B-NS3 protease). The plates were washed with PBST, and incubated with horseradish peroxidase (HRP)-conjugated anti-human IgG-Fab (1:3000) or anti-mouse IgG (1:3000) antibody at 37° C. for 1 h. The 3,3′,5,5′-tetramethylbenzidine (TMB) substrate was added to the plates, and the reaction was stopped by 1 N H2SO4. Absorbance at 450 nm (A450 value) was measured by ELISA microplate reader.
Briefly, ELISA plates were coated with each protein (1 μg/ml) at 4° C. overnight, and were then incubated with blocking buffer containing 2% fat-free milk in PBST at 37° C. for 2 h. The above compounds, or DMSO control, at serial dilutions were added to the plates, and incubated at 37° C. for 2 h. […] Absorbance at 450 nm (A450 values) was measured by an ELISA microplate reader. EC50 values were calculated.
A general note: In an ELISA, binding on a coated surface is turned into a signal by an enzyme label.

Data set [2] deals with ZIKV full-length E protein (Zika virus, UniProt Q32ZE1). Put plainly: ELISA binding to ZIKV full-length E protein. Here is the method:
as §1, §2, §3
Briefly, ELISA plates were coated with each protein (1 μg/ml) at 4° C. overnight, and were then incubated with blocking buffer containing 2% fat-free milk in PBST at 37° C. for 2 h. The above compounds, or DMSO control, at serial dilutions were added to the plates, and incubated at 37° C. for 2 h. After three washes using PBST, the plates were incubated at 37° C. for 2 h with ZIKV EDIII-specific human mAb ZKA64-LALA (0.5 μg/ml) (for binding to ZIKV full-length E or EDIII protein), or ZIKV NS2B-NS3-specific mouse sera (for binding to NS2B-NS3 protein). After further washes, the plates were incubated with HRP-conjugated anti-human IgG-Fab (1:3,000) or anti-mouse IgG (1:3,000) antibody at 37° C. for 1 h. The plates were incubated with substrate TMB, and the reaction was stopped by addition of 1 N H2SO4. Absorbance at 450 nm (A450 values) was measured by an ELISA microplate reader. EC50 values were calculated.

The test system of data set [3] is DENV-1-V1792 (2007/Vietnam). Put plainly: microbe, parasite or virus in culture. From the text:
(§4) Vero E6 and LLC-MK2 cells were maintained in Dulbecco's Modified Eagle Medium (DMEM) supplemented with 8% fetal bovine serum (FBS) and penicillin and streptomycin (P/S). C6/36 cells were maintained in Eagle's Minimal Essential Medium (EMEM) supplemented with 5% FBS and P/S. ZIKV strains, including human strains PAN2016 (2016/Panama), R116265 (2016/Mexico), PAN2015 (2015/Panama), FLR (2015/Colombia), R103451 (2015/Honduras), PRVABC59 (2015/Puerto Rico), PLCal_ZV (2013/Thailand), and IbH 30656 (1968/Nigeria), mosquito strain MEX 2-81 (2016/Mexico), and rhesus macaque strain MR 766 (1947/Uganda), were used in the studies. These ZIKV strains were cultured in Vero E6 cells, and viral titers were detected by a standard plaque-forming assay. DENV human strains, including type 1: DENV-1-V1792 (2007/Vietnam), type 2: DENV-2-V594 (2006/Puerto Rico), type 3: DENV-3-V1043 (2006/Puerto Rico), and type 4: DENV-4-PR 06-65-740 (2006/Puerto Rico), were cultured in C6/36 cells, and the viral titers were determined by plaque-forming assay as described above.
(§5) The inhibitory activity of the Z-medicaments against DENV-1-4 was performed following the similar procedures as for ZIKV, except that LLC-MK2 cells were used for the infection, and cells were cultured at 37° C. for 14-16 days before staining with 0.5% crystal violet.
(§6) After removal of the unbound compounds by centrifugation after addition of 3% PEG-6000, ZIKV was incubated with Vero E6 cells at 37° C. for 1 h. The cells were then washed with PBS, overlaid with DMEM containing 1% carboxymethyl cellulose and 2% FBS, and cultured at 37° C. for 4-5 days, followed by staining with 0.5% crystal violet.

In data set [4] the test system is DENV-3-V1043 (2006/Puerto Rico). Put plainly: microbe, parasite or virus in culture.
From the text: as §4, §5, §6

The subject of data set [5] is DENV-2-V594 (2006/Puerto Rico). The experiment in a line: microbe, parasite or virus in culture.
From the text: as §4, §5, §6

Data set [6] relates to DENV-4-PR 06-65-740 (2006/Puerto Rico). The experiment in a line: microbe, parasite or virus in culture.
From the text: as §4, §5, §6

The mark [7] stands for this setting: Dengue virus, DENV1, LLC-MK2, read-out: IC50 DENV-1-V1792, LLC-MK2 cells, Table 5.
The mark [8] stands for this setting: Dengue virus, DENV3, LLC-MK2, read-out: IC50 DENV-3-V1043, LLC-MK2 cells, Table 5.
[9] abbreviates: Dengue virus, DENV2, LLC-MK2, read-out: IC50 DENV-2-V594, LLC-MK2 cells, Table 5.
[10] abbreviates: Dengue virus, DENV4, LLC-MK2, read-out: IC50 DENV-4-PR 06-65-740, LLC-MK2 cells, Table 5.

The values below come from patent US20220313651A1, “INHIBITORS OF ZIKA VIRUS INFECTION” (priority 2019, published 2022).

Like-named read-outs stand apart in the source and are kept apart here.

As for `C[C@H]1[C@H]2CC[C@H]3[C@@H]4CC=C5C[C@@H](N(C)C)CC[C@]5(C)[C@H]4CC[C@]23CN1C` [Conessine, conessine], in data set [1], the “Binding to ZIKV EDIII protein (in words)” value was “bound to no ZIKV proteins tested”. In data set [2], the “Binding to ZIKV full-length E protein (in words)” value is recorded as “bound to no ZIKV proteins tested”.
As to `C[C@@H]1CC[C@@]2(OC1)O[C@H]1[C@@H](O)[C@H]3[C@@H]4CC[C@H]5C[C@@H](O[C@@H]6O[C@H](CO)[C@H](O[C@@H]7O[C@H](CO)[C@@H](O)[C@H](O[C@@H]8OC[C@@H](O)[C@H](O)[C@H]8O)[C@H]7O[C@@H]7O[C@H](CO)[C@H](O)[C@H](O[C@@H]8O[C@H](CO)[C@@H](O)[C@H](O)[C@H]8O)[C@H]7O)[C@H](O)[C@H]6O)[C@H](O)C[C@]5(C)[C@H]4CC[C@]3(C)[C@H]1[C@@H]2C` [Digitonin, digitonin], the “Binding to ZIKV EDIII protein (in words)” value in data set [1] is listed as “bound to no ZIKV proteins tested”. In data set [2], the “Binding to ZIKV full-length E protein (in words)” value is “bound to no ZIKV proteins tested”. The IC50 (in general, the concentration at which inhibition is half-maximal) worked out at 5.21 ± 0.35 µM in data set [3] (setting [7]), 4.07 ± 0.83 µM in data set [4] (setting [8]), 6.56 ± 0.21 µM in data set [5] (setting [9]) and 6.44 ± 0.34 µM in data set [6] (setting [10]).
In the case of `Cc1cc2c(C(C)C)c(O)c(O)c(C=O)c2c(O)c1-c1c(C)cc2c(C(C)C)c(O)c(O)c(C=O)c2c1O` [Gossypol, gossypol], the IC50 was determined as 1.87 µM in data set [3] (setting [7]); 2.06 ± 0.13 µM in data set [3] (Dengue virus, DENV1, LLC-MK2, read-out: IC50 DENV-1-V1792, LLC-MK2 cells, Table 8); 3.7 µM in data set [4] (setting [8]); 3.42 ± 0.11 µM in data set [4] (Dengue virus, DENV3, LLC-MK2, read-out: IC50 DENV-3-V1043, LLC-MK2 cells, Table 8); 1.89 µM in data set [5] (setting [9]); 1.91 ± 0.01 µM in data set [5] (Dengue virus, DENV2, LLC-MK2, read-out: IC50 DENV-2-V594, LLC-MK2 cells, Table 8). For the same compound, the IC50 in data set [6] (setting [10]) was determined as 2.6 µM; in data set [6] (Dengue virus, DENV4, LLC-MK2, read-out: IC50 DENV-4-PR 06-65-740, LLC-MK2 cells, Table 8), 2.83 ± 0.07 µM.
Consider `Cc1cc2c(C(C)C)c(O)c(O)c(/C=N/n3c(=O)[nH][nH]c3=O)c2c(O)c1-c1c(C)cc2c(C(C)C)c(O)c(O)c(/C=N/n3c(=O)[nH][nH]c3=O)c2c1O` [ST087010], for which the EC50 – broadly, the midpoint of the concentration-response curve – in data set [1] (detected with mAb ZKA64-LALA, read-out: EC50, binding to ZIKV EDIII protein) turned out to be 6.13 µM; in data set [2] (detected with mAb ZKA64-LALA), 6.47 µM. Moreover, the “SI (CC50/IC50), DENV-1-V1792” value in data set [3] is reported as 15.7. Further, the IC50 in data set [3] (read-out: IC50 DENV-1-V1792, LLC-MK2 cells, Table 8) is 3.01 ± 0.11 µM; in data set [4] (read-out: IC50 DENV-3-V1043, LLC-MK2 cells, Table 8) it was 3.33 ± 0.08 µM; in data set [5] (read-out: IC50 DENV-2-V594, LLC-MK2 cells, Table 8), 3.19 ± 0.01 µM; in data set [6] (read-out: IC50 DENV-4-PR 06-65-740, LLC-MK2 cells, Table 8), 2.98 ± 0.18 µM. For the same compound, the “SI (CC50/IC50), DENV-3-V1043” value in data set [4] is 14.2. Moreover, the “SI (CC50/IC50), DENV-2-V594” value in data set [5] is reported as 14.8. The “SI (CC50/IC50), DENV-4-PR 06-65-740” value in data set [6] is reported as 15.8.
Take `COc1cc(/C=C/C(=O)CC(=O)/C=C/c2ccc(O)c(OC)c2)ccc1O` [Curcumin, curcumin]: the “Binding to ZIKV full-length E protein (in words)” value in data set [2] is “much lower binding affinity”.
